Assays:
[1] = tested on: Na^+/K^+ ATPase (α1 and β1); assay: Pump-mediated steady-state current of Na+/K+ ATPase in Xenopus oocytes (two-electrode voltage clamp); format: cell-based, Locusta migratoria manilensis; settings: for effect on Na^+/K^+ ATPase steady-state current directly: oocytes expressing Na^+/K^+ ATPase without nAChRs, 1 μM nicotine and 1 μM DHβE
Procedure: (§1) The L. migratoria manilensis subunit α1 (KF813096) and subunit β1 (KF813099) of Na^+/k^+ ATPase, and subunit α1 (KF873578) of nAhCRs were subcloned into the expression vector pGH19 at sites of BamHIand XbaI, BamHI and ApaI, and EcoRI and XbaI, respectively. Rattus norvegicus β2 subunit (L31622) was also subcloned into the expression vector pGH19 as described previously. The cRNAs of all subunits were generated as described previously. Xenopus oocyte preparation and cRNA injection were performed as described previously. Electrophysiological recordings were made using a two-electrode voltage clamp (Multiclamp 700B Amplifier; Axon Instruments, Foster, CA, USA) as previously described. The measurement of the current of Na^+/K^+ ATPase was performed as described.

[2] = biological target: nAChRs (L. migratoria manilensis α1 and R. norvegicus β2) (Locusta migratoria manilensis, UniProt P12390+W6ECM5); assay: Two-electrode voltage-clamp agonist dose-response on nAChRs expressed in Xenopus oocytes, with or without Na+/K+ ATPase; format: cell-based; settings: for effect of Na^+/K^+ ATPase co-expression on agonist sensitivity: co-expression of Na^+/K^+ ATPase vs nAChRs alone, increase not removed by ouabain
Description: To characterize the influence of Na^+/K^+ ATPase on nAChR function, nAChRs were expressed with or without Na^+/K^+ ATPase in Xenopus oocytes.
(B) Does-response curves for nicotine. (C) Does-response curves for imidacloprid. The curves from the oocytes expressing nAChRs (L. migratoria manilensis subunit α1 and R. norvegicus subunit β2) were indicated by open squares. The curves from the oocytes co-expressing nAChRs and Na^+/K^+ ATPase (subunit α1 and β1) were indicated by solid triangles (without ouabain) and open triangles (with ouabain).
as §1
Differences in responses (currents), Imax and EC50 values were analyzed by one-way ANOVA with at least three repeats (different batches of oocytes from different frogs). Multiple comparisons between the groups were performed using S-N-K method. The level of significance for results was set at p < 0.05.

Chain of nAChRs (L. migratoria manilensis α1 and R. norvegicus β2) (W6ECM5 21-570): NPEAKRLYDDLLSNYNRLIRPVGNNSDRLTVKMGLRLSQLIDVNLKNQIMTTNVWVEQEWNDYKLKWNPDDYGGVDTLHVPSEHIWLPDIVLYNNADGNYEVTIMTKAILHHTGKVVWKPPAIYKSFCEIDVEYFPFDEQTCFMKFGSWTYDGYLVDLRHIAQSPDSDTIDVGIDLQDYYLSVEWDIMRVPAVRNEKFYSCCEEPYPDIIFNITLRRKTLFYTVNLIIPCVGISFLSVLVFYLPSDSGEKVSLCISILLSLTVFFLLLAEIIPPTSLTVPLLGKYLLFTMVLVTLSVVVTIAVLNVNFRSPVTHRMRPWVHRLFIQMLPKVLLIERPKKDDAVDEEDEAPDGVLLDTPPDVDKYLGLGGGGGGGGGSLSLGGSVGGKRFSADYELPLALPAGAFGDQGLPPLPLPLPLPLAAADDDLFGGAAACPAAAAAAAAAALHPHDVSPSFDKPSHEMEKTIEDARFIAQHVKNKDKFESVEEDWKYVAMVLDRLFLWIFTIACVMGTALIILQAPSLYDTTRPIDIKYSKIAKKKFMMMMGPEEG
Chain of nAChRs (L. migratoria manilensis α1 and R. norvegicus β2) (P12390 25-500): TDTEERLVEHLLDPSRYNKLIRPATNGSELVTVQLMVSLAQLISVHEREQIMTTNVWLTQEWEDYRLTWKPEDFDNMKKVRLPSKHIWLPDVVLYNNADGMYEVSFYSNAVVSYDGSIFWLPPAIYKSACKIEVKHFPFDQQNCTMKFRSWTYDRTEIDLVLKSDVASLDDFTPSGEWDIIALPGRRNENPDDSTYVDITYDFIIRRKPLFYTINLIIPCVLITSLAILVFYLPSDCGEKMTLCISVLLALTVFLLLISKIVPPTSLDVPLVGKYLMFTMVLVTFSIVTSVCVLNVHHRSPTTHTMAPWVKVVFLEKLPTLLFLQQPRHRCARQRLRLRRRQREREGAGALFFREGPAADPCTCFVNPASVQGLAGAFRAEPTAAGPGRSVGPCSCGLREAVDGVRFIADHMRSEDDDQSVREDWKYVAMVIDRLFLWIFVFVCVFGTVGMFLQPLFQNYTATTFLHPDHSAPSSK

Structure (SMILES)	effect on Na^+/K^+ ATPase steady-state current directly [1]	effect of Na^+/K^+ ATPase co-expression on agonist sensitivity [2]	EC50 ([2]; oocytes only expressing nAChRs) [µM]	steady state current of Na^+/K^+ ATPase ([1]; oocytes co-expressing Na^+/K^+ ATPase and nAChRs, 1 μM nicotine, with 1 μM DHβE to suppress nAChR currents)
CO[C@H]1CC=C2CCN3CCC4=C(CC(=O)OC4)[C@]23C1 [DHβE, dihydro-β-erythroidine]	no effects	–	–	–
O=[N+]([O-])NC1=NCCN1Cc1ccc(Cl)nc1 [imidacloprid]	–	increase agonist sensitivities	–	–
CC(=O)OCC[N+](C)(C)C [ACh, acetylcholine]	–	–	63.2 ± 5.14	–
CN1CCC[C@H]1c1cccnc1 [nicotine]	no effects	increase agonist sensitivities	–	increased significantly

Source: publication PMC4351541 (Scientific Reports, 2015)
